In patent US9402827B2, “Treatment of gout” (ARDEA BIOSCIENCES, INC., priority 2010, dated 2016):
“And” between values parts separate entries of the source, which are not always exact repeats. Equal entries are not always repeated.

Legend:
[1] = system: MSU-induced knee joint swelling; assay: In vivo MSU-induced inflammation, rat knee joint study (Example 3C); set-up: species or system Sprague-Dawley rats; settings: for Average increase in knee diameter: 4 h after MSU
Procedure: [table] Groups 1 and 2 were orally dosed with Vehicle (sterile water) once daily for seven days from Day 1. […] Groups 6 and 7 were orally dosed with Lesinurad once daily for seven days from Day 1; Group 7 also received colchicine administered subcutaneously on Day 7. […] The injection was performed from the anterior aspect of the knee joint, which was slightly extended and flexed. […] Four hours after MSU administration, the rats were anesthetized, the diameter of right knee joints were measured with calipers; surface temperature for right knees were measured. Synovial lavage fluid from the knee was collected by injecting phosphate buffered saline with 1% BSA (0.2 mL) into the joint cavity, the fluid then collected, centrifuged and the supernatants stored at −80° C.

[2] = system: monosodium urate (MSU) crystal injection-induced inflammation; assay: In vivo MSU-induced inflammation, rat air pouch study (Example 3B); set-up: species or system Sprague-Dawley rats; settings: for Extravasation (optical absorbance at 620 nm), Av / Extravasation (optical absorbance at 620 nm), individual rats 1-10 / Exudate volume, Av / Exudate volume, individual rats 1-10 / Total white blood cell count, Av / Total white blood cell count, individual rats 1-10: 4 h after MSU
Procedure: (Air Pouch studies) were unpacked, placed in cages, a health inspection performed and a number assigned. […] Under anesthesia, 30 mL sterile air was injected subcutaneously on day 0 and day 3. Vehicle (water) or Lesinurad were administered orally. On the day of the experiment, rats were dosed with Vehicle, Lesinurad p.o., and/or colchicine s.c. (Sigma, Cat.#C9754, Lot.#188K1131). […] The pouch was gently massaged and the exudate was immediately removed from the air pouch. The exudate volume was measured and recorded for each animal. […] The supernatants were stored at −20° C. for cytokine analysis. […] Plasma extravasation was measured by optical absorbance at 620 nm for each exudate sample.

[3] = in certain instances; cited from earlier work
gout flares = settings: allopurinol dosed with colchicine (0.5 mg QD); separate study; cited from earlier work
[4] = in certain instances; cited from earlier work; remark: listed apart in the source
TNF-α = assay: Effect of rilonacept on TNF-α production (Example 1, FIG. 2A); type: cell-based; settings: 6 hour time point
From the text: (§1) FIG. 2 illustrates the effect of rilonacept […] on TNF-α (FIG. 2A) and IL-1β production (FIG. 2B).
(§2) Activation of the inflammasome results in the release of preformed IL-1, which goes on to activate other targets as well as increase the production of IL-1 itself.

IL-1β = assay: Effect of rilonacept on IL-1β production (Example 1, FIG. 2B); type: cell-based
From the text: as §1, §2

Compound: COc1cc2c(c(OC)c1OC)-c1ccc(OC)c(=O)cc1[C@@H](NC(C)=O)CC2 [Colchicine, reference compound]
- Average increase in knee diameter ([1]; Colchicine 0.1 mg/kg s.c., p < 0.01 vs Vehicle): 0.71 mm
- Average increase in knee diameter ([1]; Colchicine 0.3 mg/kg s.c., p < 0.001 vs Vehicle): 0.53 mm
- Average increase in knee diameter ([1]; Colchicine 1 mg/kg s.c., p < 0.001 vs Vehicle): 0.41 mm
- MSU-induced increase in knee diameter, in words ([1]; Colchicine 0.1, 0.3 and 1 mg/kg): dose-dependently decreased the MSU-induced increase in knee diameter
- Extravasation (optical absorbance at 620 nm), Av ([2]; Colchicine 0.01 mg/kg s.c.): 1.78
- Extravasation (optical absorbance at 620 nm), individual rats 1-10 ([2]; Colchicine 0.01 mg/kg s.c.): 1.34 and 1.53 and 1.46 and 1.67 and 1.63 and 1.74 and 2.62 and 2.39 and 1.99 and 1.42
- Exudate volume, Av ([2]; Colchicine 0.01 mg/kg s.c.): 9.8 mL
- Exudate volume, individual rats 1-10 ([2]; Colchicine 0.01 mg/kg s.c.): 12 mL (2×) and 8 mL (3×) and 10 mL and 9 mL (2×) and 11 mL (2×)
- Total white blood cell count, Av ([2]; Colchicine 0.01 mg/kg s.c.): 1.65 ×10^8
- Total white blood cell count, individual rats 1-10 ([2]; Colchicine 0.01 mg/kg s.c.): 0.87 ×10^8 and 2.72 ×10^8 and 3.40 ×10^8 and 0.63 ×10^8 and 2.27 ×10^8 and 0.90 ×10^8 and 2.22 ×10^8 and 2.42 ×10^8 and 0.69 ×10^8 and 0.34 ×10^8
- Extravasation (optical absorbance at 620 nm), Av ([2]; Colchicine 0.1 mg/kg s.c.): 1.29
- Extravasation (optical absorbance at 620 nm), individual rats 1-10 ([2]; Colchicine 0.1 mg/kg s.c.): 1.25 and 1.41 and 1.31 and 1.74 and 0.68 and 1.75 and 1.72 and 0.98 and 0.83 and 1.22
- Exudate volume, Av ([2]; Colchicine 0.1 mg/kg s.c.): 9.86 mL
- Exudate volume, individual rats 1-10 ([2]; Colchicine 0.1 mg/kg s.c.): 9 mL (2×) and 8 mL (2×) and 10 mL and 7.8 mL and 9.8 mL and 11 mL (2×) and 15 mL
- Total white blood cell count, Av ([2]; Colchicine 0.1 mg/kg s.c.): 0.78 ×10^8
- Total white blood cell count, individual rats 1-10 ([2]; Colchicine 0.1 mg/kg s.c.): 0.41 ×10^8 and 0.14 ×10^8 and 2.60 ×10^8 and 1.21 ×10^8 and 0.32 ×10^8 and 1.27 ×10^8 and 1.51 ×10^8 and 0.03 ×10^8 and 0.06 ×10^8 and 0.27 ×10^8
- Extravasation (optical absorbance at 620 nm), Av ([2]; Colchicine 1 mg/kg s.c.): 0.89
- Extravasation (optical absorbance at 620 nm), individual rats 1-10 ([2]; Colchicine 1 mg/kg s.c.): 0.75 and 0.36 and 1.17 and 1.19 and 1.24 (2×) and 1.12 and 0.52 and 0.73 and 0.59
- Exudate volume, Av ([2]; Colchicine 1 mg/kg s.c.): 6.13 mL
- Exudate volume, individual rats 1-10 ([2]; Colchicine 1 mg/kg s.c.): 8 mL (2×) and 4.4 mL and 7 mL and 5.9 mL and 8.6 mL and 5.6 mL and 4.6 mL and 4 mL and 5.2 mL
- Total white blood cell count, Av ([2]; Colchicine 1 mg/kg s.c.): 0.56 ×10^8
- Total white blood cell count, individual rats 1-10 ([2]; Colchicine 1 mg/kg s.c.): 0.36 ×10^8 and 0.01 ×10^8 and 3.43 ×10^8 and 0.32 ×10^8 and 0.52 ×10^8 and 0.26 ×10^8 (2×) and 0.35 ×10^8 and 0.03 ×10^8 and 0.09 ×10^8
- Number of white blood cells, in words ([2]; Colchicine 0.01, 0.1, 1 mg/kg): dose-dependently lowered the number of white blood cells
- Extravasation, in words ([2]; Colchicine 0.01, 0.1 and 1 mg/kg): dose-dependent decrease in extravasation
- Exudate volume, in words ([2]; colchicine 1 mg/kg): significantly reduced exudate volume
- Exudate volume, in words ([2]; colchicine 0.01 and 0.1 mg/kg): did not significantly reduce exudate volume

Compound: Oc1ncnc2[nH]ncc12 [allopurinol]
- incidence of side effects, of all individuals treated [3]: 20%
- patients experiencing flares (gout flares): 28%

Compound: CCCN(CCC)S(=O)(=O)c1ccc(C(=O)O)cc1 [probenecid]
- individuals who fail to achieve reduction of serum uric acid levels <6 mg/dL [4]: 25-50%

Compound: rilonacept
- TNF-α production (TNF-α): only inhibits the production of TNF-α
- IL-1 production (IL-1β): does not reduce IL-1 production
